The series in a line: Hydrophobicity, dodecane partitioning assay. The class given is physicochemical, E. coli Nissle. The method, then: Hydrophobicity was measured using a standard partitioning assay. Fresh cultures of both strains were grown till log phase (OD600=0.7). The OD was found using Thermo Fischer's NanoDrop^C. The OD546 of the cell (OD1) was adjusted to 0.3 using 10 mM CaCO3 solution. 4 ml of the cell suspension was transferred to individual test tubes having 1 ml of dodecane and vortexed at 2500 rpm for 10 minutes to homogenize the phases. The phases were allowed to separate for 15 minutes. The OD546 of the aqueous phase (OD2) was measured.
The mean percentage of partitioning was calculated using triplicate samples. Partitioning of the bacteria suspension is calculated using Equation (3).

From patent US20250236838A1, “E. COLI NISSLE STRAIN WITH IMPROVED TRANSFORMATION EFFICIENCY” (priority 2024, published 2025) come the findings set out here.

“And” between values parts separate entries of the source, which are not always exact repeats. Identical values can stand only once.

As to E. coli Nissle 1917 [Wild Type], the OD2 (OD546 of the aqueous phase after dodecane partitioning) is 0.14 and 0.17. For the same substance, the OD1 (OD546 of the cell suspension before partitioning) was 0.29 and 0.27. The membrane hydrophobicity entry (conclusion from phase partitioning) is listed as “hydrophilic”. The “Average Partitioning” value (mean of triplicate samples) was 45.636%. Moreover, the “Percentage of Partitioning” value (single samples of triplicate) is 51.724% and 37.037% and 48.148%.
